Assays:
Experiment in all cases: Antibacterial spectra, MIC by standard method of Japan Society of Chemotherapy
Type in all cases: cell-based
S. pneumoniae 2054 = settings: Gram +, 10^6 cells/ml
[1] = system: Citrobacter freundii IID 976; settings: 10^6 cells/ml; for ratio of activity per that of Ciprofloxacin (bracketed number): Gram −; for MIC: IID976, Gram −, read-out: Minimum Inhibitory Concentration
P. morganii IID 602 = settings: 10^6 cells/ml; for ratio of activity per that of Ciprofloxacin (bracketed number): Gram −; for MIC: Morganella morganii, IID602, Gram −, read-out: Minimum Inhibitory Concentration
[2] = system: Proteus vulgaris IFO 3167; settings: Proteus vulgaris IFO 3167, Gram −, 10^6 cells/ml; for MIC: IFO3167, read-out: Minimum Inhibitory Concentration
Shigella sonnei IID 969 = settings: 10^6 cells/ml; for ratio of activity per that of Ciprofloxacin (bracketed number): Gram −
Description: Experiment 1. Antibacterial spectra
Antibacterial activity was determined with the standard method recommended by Japan Society of Chemotherapy.

P. mirabilis IID 994 = settings: 10^6 cells/ml; for ratio of activity per that of Ciprofloxacin (bracketed number): Gram −; for MIC: Proteus mirabilis, IID994, Gram −, read-out: Minimum Inhibitory Concentration
[3] = system: Bacillus subtilis PCI 219; settings: 10^6 cells/ml; for ratio of activity per that of Ciprofloxacin (bracketed number): Gram +; for MIC: PCI219, Gram +, read-out: Minimum Inhibitory Concentration
[4] = system: Pseudomonas aeruginosa IFO 12689; settings: 10^6 cells/ml; for ratio of activity per that of Ciprofloxacin (bracketed number): Gram −; for MIC: IFO12689, Gram −, read-out: Minimum Inhibitory Concentration
[5] = system: Serratia marcescens IID 618; settings: 10^6 cells/ml; for ratio of activity per that of Ciprofloxacin (bracketed number): Gram −; for MIC: IID618, Gram −, read-out: Minimum Inhibitory Concentration
S. faecalis IID 682 = settings: 10^6 cells/ml; for MIC: Enterococcus faecalis, IID682, Gram +, read-out: Minimum Inhibitory Concentration; for ratio of activity per that of Ciprofloxacin (bracketed number): Gram +
E. coli ATCC 10536 = settings: 10^6 cells/ml; for MIC: Escherichia coli, ATCC10536, Gram −, read-out: Minimum Inhibitory Concentration; for ratio of activity per that of Ciprofloxacin (bracketed number): Gram −
[6] = system: Alcaligenes faecalis 0104002; settings: Gram −, 10^6 cells/ml; for MIC: read-out: Minimum Inhibitory Concentration
[7] = system: Bacteroides fragilis GM 7000; settings: 10^6 cells/ml; for MIC: GM7000, Gram −, read-out: Minimum Inhibitory Concentration; for ratio of activity per that of Ciprofloxacin (bracketed number): Gram −
S. epidermidis IID 866 = settings: 10^6 cells/ml; for ratio of activity per that of Ciprofloxacin (bracketed number): Gram +; for MIC: Staphylococcus epidermidis, IID866, Gram +, read-out: Minimum Inhibitory Concentration
[8] = system: Klebsiella pneumoniae KY 6445; settings: 10^6 cells/ml; for ratio of activity per that of Ciprofloxacin (bracketed number): Gram −
[9] = system: Bacteroides fragilis 25285; settings: Gram −, 10^6 cells/ml; for MIC: read-out: Minimum Inhibitory Concentration
[10] = system: Pseudomonas aeruginosa V-1; settings: 10^6 cells/ml; for ratio of activity per that of Ciprofloxacin (bracketed number): Gram −; for MIC: V1, Gram −, read-out: Minimum Inhibitory Concentration
[11] = system: S. pyogenes IID 689 (S-8); settings: 10^6 cells/ml; for ratio of activity per that of Ciprofloxacin (bracketed number): Gram +
[12] = system: Salmonella enteritidis IID 604; settings: Gram −, 10^6 cells/ml; for MIC: Salmonella enterica, read-out: Minimum Inhibitory Concentration
[13] = system: Enterobacter cloacae IID 977; settings: 10^6 cells/ml; for ratio of activity per that of Ciprofloxacin (bracketed number): Gram −; for MIC: IID977, Gram −, read-out: Minimum Inhibitory Concentration
[14] = system: Streptococcus pyogenes IID 692; settings: 10^6 cells/ml; for ratio of activity per that of Ciprofloxacin (bracketed number): Gram +; for MIC: IID692, Gram +, read-out: Minimum Inhibitory Concentration
[15] = system: S. aureus IID 670 (Terajima); settings: 10^6 cells/ml; for ratio of activity per that of Ciprofloxacin (bracketed number): Gram +; for MIC: Staphylococcus aureus, IID670, Gram +, read-out: Minimum Inhibitory Concentration
[16] = system: Bacteroides fragilis 0558; settings: Gram −, 10^6 cells/ml; for MIC: read-out: Minimum Inhibitory Concentration
[17] = system: Staphylococcus aureus 209 P; settings: Gram +, 10^6 cells/ml; for MIC: read-out: Minimum Inhibitory Concentration
[18] = system: Acinetobacter anitratus IID 876; settings: 10^6 cells/ml; for MIC: Acinetobacter calcoaceticus, IID876, Gram −, read-out: Minimum Inhibitory Concentration; for ratio of activity per that of Ciprofloxacin (bracketed number): Gram −
E. coli NIHJ JC-2 = settings: for ratio of activity per that of Ciprofloxacin (bracketed number): E. coli NIHJ JC-2, Gram −, 10^6 cells/ml
[19] = system: Yersinia enterocolitica IID 981; settings: 10^6 cells/ml; for ratio of activity per that of Ciprofloxacin (bracketed number): Gram −; for MIC: IID981, Gram −, read-out: Minimum Inhibitory Concentration

O=C(O)c1cn(C2CC2)c2c(F)c(N3CCNCC3)c(F)cc2c1=O [Reference- 1, 1-Cyclopropyl-6,8-difluoro-1,4-dihydro-4-oxo-7-(1-piperazinyl)quinoline-3-carboxylic acid, reference compound]
0.1 µg/mL: MIC [5]
0.025 µg/mL: MIC (P. morganii IID 602) | MIC [3] | MIC [13] | MIC [19]
1.56 µg/mL: MIC [7]
0.2 µg/mL: MIC (S. epidermidis IID 866) | MIC [10] | MIC [15] | MIC [17]
2: ratio of activity per that of Ciprofloxacin (bracketed number) (S. pneumoniae 2054) | ratio of activity per that of Ciprofloxacin (bracketed number) (P. morganii IID 602) | ratio of activity per that of Ciprofloxacin (bracketed number) (P. mirabilis IID 994) | ratio of activity per that of Ciprofloxacin (bracketed number) [3] | ratio of activity per that of Ciprofloxacin (bracketed number) [6] | ratio of activity per that of Ciprofloxacin (bracketed number) [7] | ratio of activity per that of Ciprofloxacin (bracketed number) (S. epidermidis IID 866) | ratio of activity per that of Ciprofloxacin (bracketed number) [13] | ratio of activity per that of Ciprofloxacin (bracketed number) [15] | ratio of activity per that of Ciprofloxacin (bracketed number) [17] | ratio of activity per that of Ciprofloxacin (bracketed number) [18] | ratio of activity per that of Ciprofloxacin (bracketed number) [19]
1: ratio of activity per that of Ciprofloxacin (bracketed number) [2] | ratio of activity per that of Ciprofloxacin (bracketed number) (Shigella sonnei IID 969) | ratio of activity per that of Ciprofloxacin (bracketed number) [4] | ratio of activity per that of Ciprofloxacin (bracketed number) (S. faecalis IID 682) | ratio of activity per that of Ciprofloxacin (bracketed number) (E. coli ATCC 10536) | ratio of activity per that of Ciprofloxacin (bracketed number) [8] | ratio of activity per that of Ciprofloxacin (bracketed number) [10] | ratio of activity per that of Ciprofloxacin (bracketed number) [11] | ratio of activity per that of Ciprofloxacin (bracketed number) [14] | ratio of activity per that of Ciprofloxacin (bracketed number) (E. coli NIHJ JC-2)
0.0125 µg/mL: MIC [1] | MIC (E. coli ATCC 10536) | MIC [12] | MIC [18]
4: ratio of activity per that of Ciprofloxacin (bracketed number) [5] | ratio of activity per that of Ciprofloxacin (bracketed number) [16]
0.02 µg/mL: MIC [6]
0.78 µg/mL: MIC (S. faecalis IID 682) | MIC [9] | MIC [14] | MIC [16]
≤ 0.006 µg/mL: MIC [2] | MIC (P. mirabilis IID 994)
0.5: ratio of activity per that of Ciprofloxacin (bracketed number) [1]
0.39 µg/mL: MIC [4]

CN1CCN(c2c(F)cc3c(=O)c(C(=O)O)cn(C4CC4)c3c2F)CC1 [Reference- 2, 1-Cyclopropyl-6,8-difluoro-1,4-dihydro-7-(4-methyl-1-piperazinyl)-4-oxoquinoline-3-carboxylic acid, reference compound]
0.05 µg/mL: MIC (P. morganii IID 602) | MIC [3] | MIC [12] | MIC [13] | MIC [19]
0.02 µg/mL: MIC [6]
0.5: ratio of activity per that of Ciprofloxacin (bracketed number) (Shigella sonnei IID 969) | ratio of activity per that of Ciprofloxacin (bracketed number) (P. mirabilis IID 994) | ratio of activity per that of Ciprofloxacin (bracketed number) [10] | ratio of activity per that of Ciprofloxacin (bracketed number) [11] | ratio of activity per that of Ciprofloxacin (bracketed number) [12] | ratio of activity per that of Ciprofloxacin (bracketed number) (E. coli NIHJ JC-2)
0.39 µg/mL: MIC [4] | MIC [5] | MIC [9] | MIC [10] | MIC [16]
8: ratio of activity per that of Ciprofloxacin (bracketed number) [9]
0.1 µg/mL: MIC [17]
0.025 µg/mL: MIC [1] | MIC [2] | MIC (P. mirabilis IID 994)
2: ratio of activity per that of Ciprofloxacin (bracketed number) (S. pneumoniae 2054) | ratio of activity per that of Ciprofloxacin (bracketed number) (S. epidermidis IID 866) | ratio of activity per that of Ciprofloxacin (bracketed number) [15] | ratio of activity per that of Ciprofloxacin (bracketed number) [18]
0.25: ratio of activity per that of Ciprofloxacin (bracketed number) [1] | ratio of activity per that of Ciprofloxacin (bracketed number) [2]
0.0125 µg/mL: MIC (Shigella sonnei IID 969; IID969, Gram −, read-out: Minimum Inhibitory Concentration) | MIC (E. coli ATCC 10536) | MIC ([8]; KY6445, Gram −, read-out: Minimum Inhibitory Concentration) | MIC [18] | MIC (E. coli NIHJ JC-2; Escherichia coli, NIHJJC2, read-out: Minimum Inhibitory Concentration)
4: ratio of activity per that of Ciprofloxacin (bracketed number) [7] | ratio of activity per that of Ciprofloxacin (bracketed number) [17]
0.78 µg/mL: MIC (S. pneumoniae 2054; Streptococcus pneumoniae, read-out: Minimum Inhibitory Concentration) | MIC (S. faecalis IID 682) | MIC [7] | MIC ([11]; Streptococcus pyogenes, IID689, Gram +, read-out: Minimum Inhibitory Concentration) | MIC [14]
1: ratio of activity per that of Ciprofloxacin (bracketed number) (P. morganii IID 602) | ratio of activity per that of Ciprofloxacin (bracketed number) [3] | ratio of activity per that of Ciprofloxacin (bracketed number) [4] | ratio of activity per that of Ciprofloxacin (bracketed number) [5] | ratio of activity per that of Ciprofloxacin (bracketed number) (S. faecalis IID 682) | ratio of activity per that of Ciprofloxacin (bracketed number) (E. coli ATCC 10536) | ratio of activity per that of Ciprofloxacin (bracketed number) [8] | ratio of activity per that of Ciprofloxacin (bracketed number) [13] | ratio of activity per that of Ciprofloxacin (bracketed number) [14] | ratio of activity per that of Ciprofloxacin (bracketed number) [19]
0.2 µg/mL: MIC (S. epidermidis IID 866) | MIC [15]

From EP0195841A1, “Quinolinecarboxylic acid derivatives and process for their preparation” (KYORIN PHARMACEUTICAL CO., LTD., priority 1985, dated 1986)
